Test results from ChEMBL document CHEMBL1811803, “Preparation of allosamidin and demethylallosamidin photoaffinity probes and analysis of allosamidin-binding proteins in asthmatic mice” (Bioorg Med Chem, 2011).
Active and inactive are the calls of the source. No cut-off for these calls is given here.

Assays:
[1] = Inhibition of Trichoderma chitinase T1 using [4MU-(GlcNAc)3] as substrate
[2] = target: Chitinase-like protein 3 (Mus musculus) (UniProt O35744); assay: Binding affinity to Ym1 in IL-13-induced asthmatic A/J mouse BAL fluid after 1 hrs by photoaffinity labeling study
Chain of Chitinase-like protein 3 (Mus musculus) (O35744 whole entry): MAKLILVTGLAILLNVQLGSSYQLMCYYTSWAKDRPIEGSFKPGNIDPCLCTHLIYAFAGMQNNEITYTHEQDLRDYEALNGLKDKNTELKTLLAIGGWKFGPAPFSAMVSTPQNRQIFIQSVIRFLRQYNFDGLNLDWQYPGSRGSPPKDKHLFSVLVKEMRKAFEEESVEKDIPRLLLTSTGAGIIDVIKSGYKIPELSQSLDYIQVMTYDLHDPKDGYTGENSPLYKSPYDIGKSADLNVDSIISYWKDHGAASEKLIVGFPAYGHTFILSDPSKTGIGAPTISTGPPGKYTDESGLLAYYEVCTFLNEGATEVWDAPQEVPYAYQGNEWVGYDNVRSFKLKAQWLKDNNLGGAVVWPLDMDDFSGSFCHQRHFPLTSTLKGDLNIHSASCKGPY

[3] = target: Chitinase-like protein 3 (Mus musculus) (UniProt O35744); assay: Binding affinity to recombinant His-tagged mouse Ym1 expressed in Escherichia coli after 1 hrs by photoaffinity labeling study
[4] = system: Alpha-1-antiproteinase (Mus musculus); assay: Binding affinity to alpha-1 antitrypsin in IL-13-induced asthmatic A/J mouse BAL fluid after 1 hrs by photoaffinity labeling study
[5] = Stability of the compound in 0.05 M HCl for 30 mins at room temperature; type: physicochemical; conditions: buffer, 0.5 h
[6] = Stability of the compound in 0.05 M NaOH for 30 mins at room temperature; type: physicochemical; conditions: 0.5 h

Structure (SMILES) | IC50 [1] | also measured
CC(=O)N[C@H]1[C@H](O[C@H]2[C@@H](O)[C@@H](NC(=O)CCSSCCNC(=O)CCCCC3SCC4NC(=O)NC43)[C@H](O[C@H]3[C@H](O)[C@H]4N=C(N(C)C)O[C@H]4[C@@H]3CO)O[C@@H]2CO)O[C@H](CO)[C@@H](O)[C@H]1O (some centres not stated) | 50.3 µM | –
CC(=O)N[C@H]1[C@H](O[C@H]2[C@@H](O)[C@@H](N)[C@H](O[C@H]3[C@H](O)[C@H]4N=C(N(C)C)O[C@H]4[C@@H]3CO)O[C@@H]2CO)O[C@H](CO)[C@@H](O)[C@H]1O | 69.3 µM | –
CNC1=N[C@@H]2[C@@H](O)[C@H](O[C@@H]3O[C@H](CO)[C@@H](O[C@@H]4O[C@H](CO)[C@@H](O)[C@@H](O)[C@H]4NC(C)=O)[C@@H](O)[C@H]3N)[C@@H](CO)[C@@H]2O1 | 308 µM | –
CNC1=N[C@@H]2[C@@H](O)[C@H](O[C@@H]3O[C@H](CO)[C@@H](O[C@@H]4O[C@H](CO)[C@@H](O)[C@@H](O)[C@H]4N)[C@@H](O)[C@H]3NC(C)=O)[C@@H](CO)[C@@H]2O1 | 82.9 µM | –
CNC1=N[C@@H]2[C@@H](O)[C@H](O[C@@H]3O[C@H](CO)[C@@H](O[C@@H]4O[C@H](CO)[C@@H](O)[C@@H](O)[C@H]4NC(C)=O)[C@@H](O)[C@H]3NC(=O)CCSSCCNC(=O)C(CCCCNC(=O)CCCCC3SCC4NC(=O)NC43)NC(=O)c3ccc(N=[NH+][NH-])cc3)[C@@H](CO)[C@@H]2O1 (some centres not stated) | 155 µM | –
CC(=O)N[C@H]1[C@H](O[C@H]2[C@@H](O)[C@@H](NC(=O)CCSSCCNC(=O)C(CCCCNC(=O)CCCCC3SCC4NC(=O)NC43)NC(=O)c3ccc(N=[NH+][NH-])cc3)[C@H](O[C@H]3[C@H](O)[C@H]4N=C(N(C)C)O[C@H]4[C@@H]3CO)O[C@@H]2CO)O[C@H](CO)[C@@H](O)[C@H]1O (some centres not stated) | 125 µM | –

The next lines start with results.

IC50 [1] | Structure (SMILES) | also measured
34.3 µM | CC(=O)N[C@H]1[C@H](O[C@H]2[C@H](O)[C@H]3N=C(N(C)C)O[C@H]3[C@@H]2CO)O[C@H](CO)[C@@H](O[C@@H]2O[C@H](CO)[C@@H](O)[C@@H](O)[C@H]2N)[C@H]1O | –
10.7 µM | CC(=O)N[C@H]1[C@H](O[C@H]2[C@H](O)[C@H]3N=C(N(C)C)O[C@H]3[C@@H]2CO)O[C@H](CO)[C@@H](O[C@@H]2O[C@H](CO)[C@@H](O)[C@@H](O)[C@H]2NC(=O)CCSSCCNC(=O)C(CCCCNC(=O)CCCCC2SCC3NC(=O)NC32)NC(=O)c2ccc(N=[NH+][NH-])cc2)[C@H]1O (some centres not stated) | Activity [2]: Active; Activity [3]: Active; Activity [4]: Active
49.7 µM | CNC1=N[C@@H]2[C@@H](O)[C@H](O[C@@H]3O[C@H](CO)[C@@H](O[C@@H]4O[C@H](CO)[C@@H](O)[C@@H](O)[C@H]4NC(C)=O)[C@@H](O)[C@H]3NC(=O)CCSSCCNC(=O)CCCCC3SCC4NC(=O)NC43)[C@@H](CO)[C@@H]2O1 (some centres not stated) | –
10.3 µM | CNC1=N[C@@H]2[C@@H](O)[C@H](O[C@@H]3O[C@H](CO)[C@@H](O[C@@H]4O[C@H](CO)[C@@H](O)[C@@H](O)[C@H]4NC(C)=O)[C@@H](O)[C@H]3NC(C)=O)[C@@H](CO)[C@@H]2O1 [DEMETHYLALLOSAMIDIN] | –
3.6 µM | CC(=O)N[C@H]1[C@H](O[C@H]2[C@H](O)[C@H]3N=C(N(C)C)O[C@H]3[C@@H]2CO)O[C@H](CO)[C@@H](O[C@@H]2O[C@H](CO)[C@@H](O)[C@@H](O)[C@H]2NC(=O)CCSSCCNC(=O)CCCCC2SCC3NC(=O)NC32)[C@H]1O (some centres not stated) | Stability [5]: Stable; Stability [6]: Stable
5.4 µM | CC(=O)N[C@H]1[C@H](O[C@H]2[C@@H](O)[C@@H](NC(C)=O)[C@H](O[C@H]3[C@H](O)[C@H]4N=C(N(C)C)O[C@H]4[C@@H]3CO)O[C@@H]2CO)O[C@H](CO)[C@@H](O)[C@H]1O [ALLOSAMIDIN] | –
7.7 µM | CNC1=N[C@@H]2[C@@H](O)[C@H](O[C@@H]3O[C@H](CO)[C@@H](O[C@@H]4O[C@H](CO)[C@@H](O)[C@@H](O)[C@H]4NC(=O)CCSSCCNC(=O)C(CCCCNC(=O)CCCCC4SCC5NC(=O)NC54)NC(=O)c4ccc(N=[NH+][NH-])cc4)[C@@H](O)[C@H]3NC(C)=O)[C@@H](CO)[C@@H]2O1 (some centres not stated) | Activity [2]: Active; Activity [3]: Active; Activity [4]: Active
7.9 µM | CNC1=N[C@@H]2[C@@H](O)[C@H](O[C@@H]3O[C@H](CO)[C@@H](O[C@@H]4O[C@H](CO)[C@@H](O)[C@@H](O)[C@H]4NC(=O)CCSSCCNC(=O)CCCCC4SCC5NC(=O)NC54)[C@@H](O)[C@H]3NC(C)=O)[C@@H](CO)[C@@H]2O1 (some centres not stated) | –
